This is an account of results in article PMC6713628 (Investigational new drugs, 2019).

For series [1] the following is noted: more lipophilic than camptothecin; cited from earlier work.
The subject of the next series is UGT1A1. Conditions: primarily hepatic UGT1A1; cited from earlier work.
The next series relates to white blood cells. Briefly: Emax model of percent decrease of WBC from baseline to nadir versus exposure. The format is in vivo, cancer patients with solid tumors (humans).
The conditions of series [2]: lactone form; ref 32 (Leggas et al., 2009); cited from earlier work.
The conditions of series [3]: for IIV of clearance: univariate analysis.
Another series relates to platelets. The format is in vivo, cancer patients with solid tumors (humans). Conditions: sigmoid Emax model.

Like-named read-outs stand apart in the source and are kept apart here.

Consider `CC[C@@]1(O)C(=O)OCc2c1cc1n(c2=O)Cc2c-1nc1ccc(O)cc1c2[Si](C)(C)C(C)(C)C` [AR-67, 7-t-butyldimethylsilyl-10-hydroxycamptothecin], for which the “lipophilicity relative to camptothecin” value in series [1] was “about 25 times”. In addition, the “in vitro interaction with UGT1A1” value in the series on UGT1A1 is “weak”. In addition, in the series with white blood cells (AUC0-∞ as independent variable, hyperbolic Emax model, 22 patients, Cycle 1), the “AUC ED50, percent decrease of WBC” value was found to be 397.6 ng·h/mL. Moreover, the “Cmax ED50, percent decrease of WBC” value in the series with white blood cells (Cmax as independent variable, sigmoid Emax model) was determined as 0.3268 µg/mL. Also, the “overall protein binding, lactone” value in series [2] is 95.4%. In addition, the “AGE on V1 (covariate effect exponent), estimate” value in series [3] (V1=V1TV×(AGE/62)^θ, original dataset) is 3.36. The “Interindividual variability in V1” value in series [3] (before incorporation of age into the model) stood at 118%. For the same molecule, in series [3] (bootstrap n=1000 datasets), the “AGE on V1, bootstrap median” value amounted to 3.48; the “CL, bootstrap median” value was 31.9 L/h; the “Q, bootstrap median” value was found to be 29.0 L/h; the “V1, bootstrap median” value came to 6.65 L. Besides, in series [3] (bootstrap n=1000 datasets), the “V2, bootstrap median” value was determined as 25.8 L and the “ω2 V1, bootstrap median” value is on record as 0.856. Besides, the “Interindividual variability (CV%) of population CL” value in series [3] (final model) turned out to be 29.1%. In series [3] (final model, original dataset), the “V2 (peripheral volume), population estimate” value is given as 25.0 L; the “ω2 CL (interindividual variability), estimate” value was 0.0849; the “ω2 V1 (interindividual variability), estimate” value is 0.957. The “V1 (central volume), population estimate” value in series [3] (final model, original dataset, typical value for subjects aged 62 years) is reported as 6.83 L. The “Interindividual variability (CV%) of population V1” value in series [3] (final model, with age as covariate) was 97.8%. In series [3] (BSA included as covariate on CL), this molecule yielded an IIV of clearance of 25.5%. The molecule also came in with an IIV of clearance in series [3] (before inclusion of BSA) of 29.2%. Besides, the “AUC ED50, percent decrease of platelets” value in the series with platelets (AUC0-∞ as independent variable, 22 patients, Cycle 1) turned out to be 276.8 ng·h/mL. Besides, the “Cmax ED50, percent decrease of platelets” value with platelets (Cmax as independent variable) was 0.2811 µg/mL.
